Assay results: US9655942B2, “Medical formulation for treating hypercholesterolemia” (priority 2012, dated 2017)

What was measured:
[1] = system: patients suffering from increased low density lipoprotein (LDL) levels; test: Example 2: blood level effects (cholesterol, HDL, LDL, non-HDL, risk factor, triglycerides) after three months; type: in vivo, human; conditions: for HDL / LDL / Non-HDL cholesterol / Total cholesterol / Triglycerides: group value; for Risk factor: total cholesterol blood level divided by HDL blood level
Method: Especially, the present invention relates to the present medical formulations for recuperation of vascular walls, lowering low density lipoprotein blood levels, lowering the viscosity of blood, lowering blood pressure, and/or increasing high density lipoprotein levels. Preferably, the present invention relates to the present medical formulation for reducing the risk factor in humans, or patients, at risk of hypercholesterolemia, wherein the risk factor is determined by the total cholesterol blood level divided by the HDL blood level.
(§1) As control, group 1 of 5 patients suffering from increased low density lipoprotein (LDL) levels were treated for three months with a formulation comprising, as daily dose 11.40 mg extract of lovastatin.
(§2) A group 2 of 14 patients suffering from increased low density lipoprotein (LDL) levels were treated for three months with a formulation comprising, as daily dose: • 4.80 mg bark extract of cinnamomum zeylanicum; • 24.20 mg fibre extract of Pinus pinaster; • 24.00 mg bark extract Saccharum officinarum; • 11.40 mg lovastatin; • 1.2 mg leave extract of Taraxacum officinale; • 16 mg leave extract of Camellia sinensis; • 20 mg nicotinamide; • 14 mg 50% alpha tocopherol; • 60 mg coenzyme Q10; • 37.80 mg fish oil comprising 19.2 wt % eicosapentaenoic acid and 12.9 wt % docosahexanoic acid; • 60.00 mg beta-glucan; and • 1 mg cholecalciferol.
(§3) The above ingredients were divided in two capsules for daily intake. The capsules were composed of gelatin. One capsule was taken during breakfast; the other was taken during dinner.

[2] = system: patients suffering from increased low density lipoprotein (LDL) levels; test: Example 2: blood pressure after three months; type: in vivo, human
Method: as §1, §2, §3

CC[C@H](C)C(=O)O[C@H]1C[C@@H](C)C=C2C=C[C@H](C)[C@H](CC[C@@H]3C[C@@H](O)CC(=O)O3)[C@H]21 [lovastatin]
HDL Δ ([1]; change T = 0 to T = 3 months): -4.0 mg/dL
LDL Δ ([1]; change T = 0 to T = 3 months): -23.0 mg/dL
Non-HDL cholesterol Δ ([1]; change T = 0 to T = 3 months): -28.0 mg/dL
Risk factor Δ ([1]; change T = 0 to T = 3 months): -0.41
Total cholesterol Δ ([1]; change T = 0 to T = 3 months): -26.2 mg/dL
Triglycerides Δ ([1]; change T = 0 to T = 3 months): -19 mg/dL
HDL ([1]; T = 0 (before treatment)): 72.0 mg/dL
LDL ([1]; T = 0 (before treatment)): 96.2 mg/dL
Non-HDL cholesterol ([1]; T = 0 (before treatment)): 129.4 mg/dL
Total cholesterol ([1]; T = 0 (before treatment)): 201.4 mg/dL
Triglycerides ([1]; T = 0 (before treatment)): 165.8 mg/dL
HDL ([1]; T = 3 (three months treatment)): 68.0 mg/dL
LDL ([1]; T = 3 (three months treatment)): 73.2 mg/dL
Non-HDL cholesterol ([1]; T = 3 (three months treatment)): 101.4 mg/dL
Total cholesterol ([1]; T = 3 (three months treatment)): 175.2 mg/dL
Triglycerides ([1]; T = 3 (three months treatment)): 146.8 mg/dL
reduction of risk factor ([1]; three months treatment, stated as size of reduction): 0.41
Risk factor ([1]; T = 0 (before treatment)): 2.91
Risk factor ([1]; T = 3 (three months treatment)): 2.5
Diastolic ([2]; T = 0 (before treatment)): 79.2 mmHg
Systolic ([2]; T = 0 (before treatment)): 120.0 mmHg
Diastolic ([2]; T = 3 (three months treatment)): 79.1 mmHg
Systolic ([2]; T = 3 (three months treatment)): 130.0 mmHg
Diastolic Δ ([2]; change T = 0 to T = 3 months): −0.1 mmHg
